The text below walks through data of patent publication US8450305B2, “Macrocyclic compounds useful as inhibitors of kinases and HSP90” (Universite de Strasbourg, priority 2006, dated 2013).

Common to all, as to type: biochemical
One assay deals with T1, B-RAF-VE (Homo sapiens, UniProt P15056, V600E).
T1 construct: host or cells: Sf9 insect cells (baculovirus)
As to the kind of experiment: Radiometric protein kinase assay, B-RAF-VE. Conditions: 1 μM ATP; read-out: Inhibitory activity (IC50:μM) B-RAF-VE. An excerpt:
(§1) All protein kinases were expressed in Sf9 insect cells as human recombinant GST-fusion proteins or His-tagged proteins by means of the baculovirus expression system. Kinases were purified by affinity chromatography using either GSH-agarose (Sigma) or Ni-NTH-agarose (Qiagen). The purity of each kinase was checked by SDS-PAGE/silver staining and the identity of each kinase was verified by western blot analysis with kinase specific antibodies or by mass spectroscopy.
(§2) A radiometric protein kinase assay (^33PanQinase® Activity Assay) was used for measuring the kinase activity of the 24 protein kinases. […]
(§3) The reaction cocktails were incubated at 30° C. for 80 minutes. […] Incorporation of ^33Pi was determined with a microplate scintillation counter (Microbeta Trilux, Wallac).
(§4) The median value of the counts in column 1 (n=8) of each assay plate was defined as “low control”. This value reflects unspecific binding of radioactivity to the plate in the absence of a protein kinase but in the presence of the substrate. […]
(§5) As part of the data evaluation the low control value from a particular plate was subtracted from the high control value as well as from all 80 “compound values” of the corresponding plate. The residual activity (in %) for each well of a particular plate was calculated by using the following formula: Res. Activity (%)=100×[(cpm of compound−low control)/(high control−low control)] […]

The next assay addresses T2, EGF-R (Homo sapiens, UniProt P00533).
T2 construct: host or cells: Sf9 insect cells (baculovirus)
As to the kind of experiment: Radiometric protein kinase assay, EGF-R. The settings on record: 1 μM ATP; read-out: Inhibitory activity (IC50:μM) EGF-R.
Excerpt: as §1
(§6) A radiometric protein kinase assay (^33PanQinase® Activity Assay) was used for measuring the kinase activity of the 24 protein kinases. All kinase assays were performed in 96-well FlashPlates™ from Perkin Elmer (Boston, Mass., USA) in a 50 μl reaction volume. The reaction cocktail was pipetted in 4 steps in the following order: • 20 μl of assay buffer • 5 μl of ATP solution (in H2O) • 5 μl of test compound (in 10% DMSO) • 10 μl of substrate/10 […] of enzyme solution (premixed)
(§7) The assay for all enzymes contained 60 mM HEPES-NaOH, pH 7.5, 3 mM MgCl2, 3 mM MnCl2, 3 μM Na-orthovanadate, 1.2 mM DTT, 50 μg/ml PEG20000, 1 μM [γ-^33P]-ATP (approx. 5×10^05 cpm per well).
(§8) For the 24 kinase assays, the following amounts of enzyme and substrate were used per well:
(§9) The reaction cocktails were incubated at 30° C. for 80 minutes. The reaction was stopped with 50 μl of 2% (v/v) H3PO4, plates were aspirated and washed two times with 200 μl of 0.9% (w/v) NaCl or 200 μl H2O. Incorporation of ^33Pi was determined with a microplate scintillation counter (Microbeta Trilux, Wallac).
(§10) The median value of the counts in column 1 (n=8) of each assay plate was defined as “low control”. This value reflects unspecific binding of radioactivity to the plate in the absence of a protein kinase but in the presence of the substrate. The median value of the counts in column 7 of each assay plate (n=8) was taken as the “high control”, i.e. full activity in the absence of any inhibitor. The difference between high and low control was taken as 100% activity.
(§11) As part of the data evaluation the low control value from a particular plate was subtracted from the high control value as well as from all 80 “compound values” of the corresponding plate. The residual activity (in %) for each well of a particular plate was calculated by using the following formula: Res. Activity (%)=100×[(cpm of compound−low control)/(high control−low control)]
(§12) The residual activities for each concentration and the compound IC50 values were calculated using Quattro Workflow V2.1.0.0 (Quattro Research GmbH, Munich, Germany; www.quattro-research.com). The model used was “Sigmoidal response (variable slope)” with parameters “top” fixed at 100% and “bottom” at 0%.

The target in a further assay is T3, SRC (Homo sapiens, UniProt P12931).
T3 construct: host or cells: Sf9 insect cells (baculovirus)
T3 sequence (P12931 whole entry): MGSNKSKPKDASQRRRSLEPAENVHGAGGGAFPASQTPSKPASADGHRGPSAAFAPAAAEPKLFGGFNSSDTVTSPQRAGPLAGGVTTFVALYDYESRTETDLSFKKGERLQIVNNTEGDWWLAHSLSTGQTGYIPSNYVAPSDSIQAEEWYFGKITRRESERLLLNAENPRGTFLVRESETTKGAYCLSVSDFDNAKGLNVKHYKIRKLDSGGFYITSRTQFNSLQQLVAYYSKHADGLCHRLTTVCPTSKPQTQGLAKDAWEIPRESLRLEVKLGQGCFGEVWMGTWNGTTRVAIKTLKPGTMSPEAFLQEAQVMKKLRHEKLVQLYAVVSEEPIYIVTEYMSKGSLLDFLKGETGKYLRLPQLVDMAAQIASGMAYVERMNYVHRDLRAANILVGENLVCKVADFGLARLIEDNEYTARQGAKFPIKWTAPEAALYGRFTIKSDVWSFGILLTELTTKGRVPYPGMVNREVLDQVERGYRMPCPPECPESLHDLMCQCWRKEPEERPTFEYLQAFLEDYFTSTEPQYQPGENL
The experiment in a line: Radiometric protein kinase assay, SRC. The settings on record: 1 μM ATP; read-out: Inhibitory activity (IC50:μM) SRC.
Excerpt: as §1, §6, §7, §8, §9, §10, §11, §12

A further assay addresses T4, ERBB2 (Homo sapiens, UniProt P04626).
T4 construct: host or cells: Sf9 insect cells (baculovirus)
As to the kind of experiment: Radiometric protein kinase assay, ERBB2. Conditions: 1 μM ATP; read-out: Inhibitory activity (IC50:μM) ERBB2.
Excerpt: as §1, §2, §3, §4, §5

The next assay has as its target T5, IGF1-R (Homo sapiens, UniProt P08069).
T5 construct: host or cells: Sf9 insect cells (baculovirus)
As to the kind of experiment: Radiometric protein kinase assay, IGF1-R. The settings on record: 1 μM ATP; read-out: Inhibitory activity (IC50:μM) IGF1-R.
Excerpt: as §1, §6, §7, §8, §9, §10, §11, §12

Another assay deals with T6, FLT3 (Homo sapiens, UniProt P36888).
T6 construct: host or cells: Sf9 insect cells (baculovirus)
T6 sequence (P36888 27-993): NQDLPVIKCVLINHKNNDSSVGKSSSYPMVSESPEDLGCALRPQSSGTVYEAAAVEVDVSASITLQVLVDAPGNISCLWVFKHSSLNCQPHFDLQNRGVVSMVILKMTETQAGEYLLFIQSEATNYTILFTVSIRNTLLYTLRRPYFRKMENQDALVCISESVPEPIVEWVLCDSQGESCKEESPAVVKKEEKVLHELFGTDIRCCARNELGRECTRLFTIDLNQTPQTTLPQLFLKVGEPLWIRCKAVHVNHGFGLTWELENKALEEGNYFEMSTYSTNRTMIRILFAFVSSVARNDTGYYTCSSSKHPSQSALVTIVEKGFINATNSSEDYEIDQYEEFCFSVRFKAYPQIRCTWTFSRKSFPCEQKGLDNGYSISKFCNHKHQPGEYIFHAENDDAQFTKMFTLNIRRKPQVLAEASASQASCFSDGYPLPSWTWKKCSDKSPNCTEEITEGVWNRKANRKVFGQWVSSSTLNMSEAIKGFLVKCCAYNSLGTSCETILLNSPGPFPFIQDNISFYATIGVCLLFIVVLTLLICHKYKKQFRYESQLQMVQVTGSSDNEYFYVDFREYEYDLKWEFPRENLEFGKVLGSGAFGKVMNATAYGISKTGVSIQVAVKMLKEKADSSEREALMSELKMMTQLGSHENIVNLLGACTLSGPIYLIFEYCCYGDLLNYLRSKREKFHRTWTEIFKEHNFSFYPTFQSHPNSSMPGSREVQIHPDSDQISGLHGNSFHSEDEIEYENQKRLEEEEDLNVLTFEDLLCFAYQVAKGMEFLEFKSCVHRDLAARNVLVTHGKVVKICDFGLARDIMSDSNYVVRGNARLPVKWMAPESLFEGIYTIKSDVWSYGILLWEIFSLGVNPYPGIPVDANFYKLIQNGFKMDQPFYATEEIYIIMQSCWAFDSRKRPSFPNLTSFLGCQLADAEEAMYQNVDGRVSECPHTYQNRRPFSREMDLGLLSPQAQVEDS
As to the kind of experiment: Radiometric protein kinase assay, FLT3. Conditions: 1 μM ATP; read-out: Inhibitory activity (IC50:μM) FLT3.
Excerpt: as §1, §6, §7, §8, §9, §10, §11, §12

In a further assay the target is T7, INS-R (Homo sapiens, UniProt P06213).
T7 construct: host or cells: Sf9 insect cells (baculovirus)
T7 sequence (P06213 980-1382 limits assumed): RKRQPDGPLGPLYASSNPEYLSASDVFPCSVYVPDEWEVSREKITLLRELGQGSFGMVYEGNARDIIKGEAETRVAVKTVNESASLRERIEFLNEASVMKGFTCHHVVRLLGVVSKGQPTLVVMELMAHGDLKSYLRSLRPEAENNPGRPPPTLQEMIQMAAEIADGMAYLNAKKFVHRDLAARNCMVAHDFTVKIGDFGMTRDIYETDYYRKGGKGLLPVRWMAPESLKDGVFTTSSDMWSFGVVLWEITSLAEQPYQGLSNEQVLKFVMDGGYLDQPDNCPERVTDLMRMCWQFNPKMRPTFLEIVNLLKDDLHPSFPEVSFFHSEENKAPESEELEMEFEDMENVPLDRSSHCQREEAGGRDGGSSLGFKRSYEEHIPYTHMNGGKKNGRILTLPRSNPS
The experiment in a line: Radiometric protein kinase assay, INS-R. The settings on record: 1 μM ATP; read-out: Inhibitory activity (IC50:μM) INS-R.
Excerpt: as §1, §2, §3, §4, §5

T2 sequence (P00533 25-1210): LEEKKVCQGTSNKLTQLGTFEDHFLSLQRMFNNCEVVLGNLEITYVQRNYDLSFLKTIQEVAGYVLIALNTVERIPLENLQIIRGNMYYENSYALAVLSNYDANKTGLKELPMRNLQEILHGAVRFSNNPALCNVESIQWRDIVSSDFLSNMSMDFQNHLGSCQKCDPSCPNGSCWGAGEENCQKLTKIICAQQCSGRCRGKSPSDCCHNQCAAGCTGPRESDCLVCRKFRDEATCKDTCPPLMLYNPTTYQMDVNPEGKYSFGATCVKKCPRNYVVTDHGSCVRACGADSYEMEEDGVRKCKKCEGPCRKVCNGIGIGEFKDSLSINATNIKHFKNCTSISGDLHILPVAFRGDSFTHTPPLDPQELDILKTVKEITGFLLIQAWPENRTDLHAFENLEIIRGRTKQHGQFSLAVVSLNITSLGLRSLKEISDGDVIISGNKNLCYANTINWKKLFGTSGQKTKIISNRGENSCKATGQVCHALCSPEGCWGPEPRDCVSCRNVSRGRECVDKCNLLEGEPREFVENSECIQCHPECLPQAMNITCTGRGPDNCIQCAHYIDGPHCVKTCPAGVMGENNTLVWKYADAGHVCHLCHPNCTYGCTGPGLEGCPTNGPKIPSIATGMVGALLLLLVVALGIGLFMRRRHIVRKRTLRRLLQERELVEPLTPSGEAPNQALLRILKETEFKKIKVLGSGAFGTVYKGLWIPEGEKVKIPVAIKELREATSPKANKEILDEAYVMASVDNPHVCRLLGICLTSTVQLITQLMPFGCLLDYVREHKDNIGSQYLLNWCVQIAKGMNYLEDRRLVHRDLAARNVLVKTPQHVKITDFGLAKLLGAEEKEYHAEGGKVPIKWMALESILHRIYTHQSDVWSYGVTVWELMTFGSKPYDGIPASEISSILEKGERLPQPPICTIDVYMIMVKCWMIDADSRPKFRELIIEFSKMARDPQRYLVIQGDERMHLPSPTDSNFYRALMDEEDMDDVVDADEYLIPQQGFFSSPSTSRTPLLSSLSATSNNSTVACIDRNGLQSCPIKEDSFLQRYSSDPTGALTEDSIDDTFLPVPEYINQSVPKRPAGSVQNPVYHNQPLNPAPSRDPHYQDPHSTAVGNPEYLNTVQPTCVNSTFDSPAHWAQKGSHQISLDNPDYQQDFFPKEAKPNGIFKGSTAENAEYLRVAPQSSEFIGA
T5 sequence (P08069 31-1367): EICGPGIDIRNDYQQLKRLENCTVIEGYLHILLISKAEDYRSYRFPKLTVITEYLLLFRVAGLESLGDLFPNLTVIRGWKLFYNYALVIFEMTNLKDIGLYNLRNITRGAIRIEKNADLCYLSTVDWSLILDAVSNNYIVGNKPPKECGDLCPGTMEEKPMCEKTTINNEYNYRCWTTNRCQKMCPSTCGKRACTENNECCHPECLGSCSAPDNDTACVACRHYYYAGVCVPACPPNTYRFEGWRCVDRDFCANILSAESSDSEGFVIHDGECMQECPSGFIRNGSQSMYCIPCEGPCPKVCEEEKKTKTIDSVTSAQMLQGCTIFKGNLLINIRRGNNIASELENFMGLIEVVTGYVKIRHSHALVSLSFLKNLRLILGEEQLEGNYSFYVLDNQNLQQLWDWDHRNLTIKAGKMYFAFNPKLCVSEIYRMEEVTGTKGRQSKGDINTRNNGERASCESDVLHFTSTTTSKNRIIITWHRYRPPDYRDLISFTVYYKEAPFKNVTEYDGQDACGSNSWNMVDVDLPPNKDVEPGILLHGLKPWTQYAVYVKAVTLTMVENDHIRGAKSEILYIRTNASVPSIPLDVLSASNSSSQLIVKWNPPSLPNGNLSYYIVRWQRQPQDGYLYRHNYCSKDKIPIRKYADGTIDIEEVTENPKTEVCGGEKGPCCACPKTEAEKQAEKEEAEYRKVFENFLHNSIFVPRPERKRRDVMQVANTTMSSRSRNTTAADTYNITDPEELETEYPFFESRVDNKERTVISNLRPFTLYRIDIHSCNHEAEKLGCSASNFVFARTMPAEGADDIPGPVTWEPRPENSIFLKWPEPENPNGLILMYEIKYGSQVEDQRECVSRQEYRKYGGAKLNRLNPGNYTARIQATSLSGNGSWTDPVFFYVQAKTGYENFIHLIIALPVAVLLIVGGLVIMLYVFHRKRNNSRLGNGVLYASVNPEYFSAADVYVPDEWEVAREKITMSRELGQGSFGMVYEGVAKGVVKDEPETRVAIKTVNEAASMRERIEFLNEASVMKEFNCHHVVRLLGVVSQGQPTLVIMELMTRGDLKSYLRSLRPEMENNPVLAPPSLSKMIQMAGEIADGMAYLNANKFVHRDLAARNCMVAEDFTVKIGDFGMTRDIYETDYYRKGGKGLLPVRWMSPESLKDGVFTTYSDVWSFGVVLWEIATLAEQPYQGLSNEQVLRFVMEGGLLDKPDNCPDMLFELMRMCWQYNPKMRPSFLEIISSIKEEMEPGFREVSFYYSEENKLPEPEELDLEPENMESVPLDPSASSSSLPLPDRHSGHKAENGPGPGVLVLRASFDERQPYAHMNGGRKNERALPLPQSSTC
T4 sequence (P04626 23-1255): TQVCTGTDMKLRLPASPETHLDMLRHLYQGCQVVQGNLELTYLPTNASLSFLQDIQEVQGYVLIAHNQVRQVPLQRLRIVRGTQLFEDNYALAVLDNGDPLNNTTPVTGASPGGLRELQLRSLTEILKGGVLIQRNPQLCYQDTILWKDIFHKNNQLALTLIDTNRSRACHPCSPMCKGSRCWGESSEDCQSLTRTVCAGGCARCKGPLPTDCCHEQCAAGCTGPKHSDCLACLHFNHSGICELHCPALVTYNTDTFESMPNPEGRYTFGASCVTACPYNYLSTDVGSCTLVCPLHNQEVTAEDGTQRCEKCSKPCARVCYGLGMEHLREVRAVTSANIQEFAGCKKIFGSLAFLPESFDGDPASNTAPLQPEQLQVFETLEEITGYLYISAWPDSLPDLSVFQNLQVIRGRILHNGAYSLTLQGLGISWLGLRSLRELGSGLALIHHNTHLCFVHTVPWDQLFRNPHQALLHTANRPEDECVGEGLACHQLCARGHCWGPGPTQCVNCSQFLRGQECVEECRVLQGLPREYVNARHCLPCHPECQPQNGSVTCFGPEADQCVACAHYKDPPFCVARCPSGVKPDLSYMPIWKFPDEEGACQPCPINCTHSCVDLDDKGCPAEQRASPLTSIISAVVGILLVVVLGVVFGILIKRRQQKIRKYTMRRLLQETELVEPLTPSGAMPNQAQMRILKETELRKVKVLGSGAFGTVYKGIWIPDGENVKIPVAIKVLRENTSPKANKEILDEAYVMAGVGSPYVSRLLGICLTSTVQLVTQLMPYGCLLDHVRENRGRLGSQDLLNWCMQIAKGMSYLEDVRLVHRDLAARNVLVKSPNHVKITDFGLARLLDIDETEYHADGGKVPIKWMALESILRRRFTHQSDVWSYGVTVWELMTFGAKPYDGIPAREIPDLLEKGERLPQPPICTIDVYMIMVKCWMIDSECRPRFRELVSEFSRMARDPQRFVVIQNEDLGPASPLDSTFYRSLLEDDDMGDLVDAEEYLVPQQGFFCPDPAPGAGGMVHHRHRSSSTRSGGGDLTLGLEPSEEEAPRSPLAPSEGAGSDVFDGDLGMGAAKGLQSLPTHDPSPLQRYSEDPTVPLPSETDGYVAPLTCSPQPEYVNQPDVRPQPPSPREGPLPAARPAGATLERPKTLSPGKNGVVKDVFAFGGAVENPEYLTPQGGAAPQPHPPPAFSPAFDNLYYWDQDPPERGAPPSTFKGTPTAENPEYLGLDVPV

The IC50 is the point on the concentration scale where inhibition reaches its midpoint. Take `O=C1/C=C/CCC2OC2C[C@H](c2ccccc2)OC(=O)c2c(O)cc(O)c(Cl)c2C1` (stereo partly shown) [A-5]: the IC50 on B-RAF-VE came out at 50 µM; on EGF-R it was 16 µM; at SRC it was 12 µM.
For `O=C1Cc2c(Cl)c(O)cc(O)c2C(=O)O[C@H](c2ccccc2)C/C=C/CCC(Cl)C1` (stereo partly shown) [A-3], the 50% inhibitory concentration (IC50) at ERBB2 stood at 24 µM; on EGF-R, 14 µM; at IGF1-R, 19 µM; on SRC, 14 µM; on FLT3, 23 µM; on INS-R, 44 µM.
On to `O=C1/C=C/CCC2OC2C[C@@H](Cc2ccccc2)OC(=O)c2c(O)cc(O)cc2C1` (stereo partly shown) [A-6], for which the IC50 on EGF-R came out at 32 µM; on IGF1-R, 21 µM; at SRC, 20 µM; at FLT3, 44 µM.
For `CC(C)[C@@H]1CC2OC2CC/C=C/C(=O)Cc2c(Cl)c(O)cc(O)c2C(=O)O1` (stereo partly shown) [A-4], the IC50 was found to be 22 µM on EGF-R, 13 µM on IGF1-R, 12 µM at SRC and 45 µM on FLT3.
Consider `COC1CC/C=C/C[C@H](c2ccccc2)OC(=O)c2c(O)cc(O)c(Cl)c2CC(=O)C1` (stereo partly shown) [A-2], for which the IC50 stood at 16 µM on ERBB2; 10 µM on EGF-R; 16 µM at IGF1-R; 23 µM at FLT3; 36 µM at INS-R.
